# Patent US20180355326A1, “CYTOCHROME P450 AND CYTOCHROME P450 REDUCTASE POLYPEPTIDES, ENCODING NUCLEIC ACID MOLECULES AND USES THEREOF” (UNIVERSITY OF BRITISH COLUMBIA, priority 2012, published 2018)
# B1: SaCYP76F39v1 (SaCYP76-G10) (Santalum album) (protein)
# chain: MDFLSCILFVLFAWALVRALPTLSRGSKAASGRLPPGPVPWPVVGNLLKLGNKPHKSLAELAKSYGPIMCLKLGHMTTIVISTPTVAKEVLQKQDVAFSNRTTPDAVRAHGHDLYSMAWLPVSTRWRTLRKISNSHIFTSQRLDENHHLRRRKLDELLARVAESSLVGAVVDMGAVAFLTSLNLLSNTVFSKDLVEPGLGAVQETKEVVWGMMEEAGRPNLVDYFPVLRRLDPQGIRRRMTGYFGKMLEVFGDIIDERLEWRKQQSDGDSPAGTTNDVLDVLLNIIEDAEIEEKPNRTDVEHFLLDLFAAGSDTTSSTVEWAMTELLRKPETLERARSELHETIGPENLVQEADLPRLPYLQAVVKETFRLHPPVPLLLPRTAEKDAELCGFTVPAGAQIMVNAWAIGRDPGTWEDPESFLPERFLGSDVDVKGRSFELIPFGGGRRICPGLPLAIRMVHLMLGSLIHGFRWKVDDDGMGSPETAMDMDEKFGITLQKAKPLCAVPIRG
# B2: SaCYP76F37v1 (SaCYP76-G11) (Santalum album) (protein)
# chain: MDFLSCILSVLFAWALVRALPTLSRGSKAAGGRLPPGPVPLPVVGNLLKLGSKPHKSLAELAKSYGPIMCLKLGHIITIVISTPTVAKEVLQKQDVAFCNRTIPDAVRAHRHDLHSMVWLPVSTRWRTLRKISNSHIFSSQRLDENHHLRRRKLDELLTRVAESSLVGAVVDIGAVAFLTSLNLLSNTVFSKDLVEPGLGAVQEMEEVVWGITEEAGRPNLVDYFPVLRRLDPQGTRRRMMGYFGKMFEVFGDIIDERLEWRKQQSDGDSPAGTTNDVLDVLLNIIEDAEIEEKPNRTDVEHFLLDLFAAGSDTTSSTVEWAMTELLRKPETLERARSELHETIGPENLVQEADLPRLPYLQAVVKETFRLHPPVPLLLPRTAEKDAELCGFTVPAGAQIMVNAWAIGRDPGTWEDPESFLPERFLGSDVDVKGRSFELIPFGGGRRICPGLPLAIRMVHLMLGSLIHGFRWKVDDDGMGSPETAMDMDEKFGITLQKAKPLCAVPIRG
# Assays:
# [1] = tested on: SaCYP76F38v1 (SaCYP76-G5); assay: Oxidation of various mono- and sesquiterpene substrates by yeast microsomes containing SaCYP76F38v1; format: biochemical, Santalum album; conditions: 60 to 80 μM of the terpene substrate, 30° C., 1 hour, GC-MS, compared to vector control
# Protocol: The reaction mixtures contained 50 mM potassium phosphate, 0.8 mM NADPH and 60 to 80 μM of the terpene substrate in a total volume of 350 μL. Enzyme reactions were started by adding 50 μL of the microsome preparation, incubated at 30° C. for 1 hour with shaking and stopped by extraction with 500 μL of hexane/ethyl acetate (85:15). The organic layer was concentrated under a gentle stream of N2 gas to about 100 μL and analyzed by GC-MS analysis as described in Example 6. […] The reaction products were identified based on matches of the MS fragmentation patterns with entries in the NIST and Wiley libraries (Wiley Registry® 9th Edition/NIST 2011; Fred W. McLafferty, John Wiley & Sons, Inc.).
# [2] = target: T1, SaCYP76F39v1 (SaCYP76-G10) (Santalum album, UniProt V5RH69); assay: Oxidation of various mono- and sesquiterpene substrates in vitro by SaCYP76F39v1; conditions: product formation the same as that catalyzed by CYP76-G5
# Protocol: The reaction mixtures contained 50 mM potassium phosphate, 0.8 mM NADPH and 60 to 80 μM of the terpene substrate in a total volume of 350 μL. Enzyme reactions were started by adding 50 μL of the microsome preparation, incubated at 30° C. for 1 hour with shaking and stopped by extraction with 500 μL of hexane/ethyl acetate (85:15). […] The reaction products were identified based on matches of the MS fragmentation patterns with entries in the NIST and Wiley libraries (Wiley Registry® 9th Edition/NIST 2011; Fred W. McLafferty, John Wiley & Sons, Inc.).
# [3] = target: T1, SaCYP76F39v1 (SaCYP76-G10); assay: In vitro assay 2, microsomes containing SaCYP76F39v1 with a mixture of santalenes and bergamotene; format: biochemical; conditions: substrate mixture of santalenes and bergamotene; no product in the absence of NADPH or with empty vector microsomes
# Protocol: (§1) Assays were performed in 400 μL reaction volumes containing 50 mM potassium phosphate pH 7.5, 0.8 mM NADPH and 40 μM of substrate. Enzyme reactions were initiated by adding 50 μL of the microsomes preparation (prepared in Example 8), incubated at 30° C. for 2 hours with shaking and stopped by adding 500 μL hexane.
# Microsomes containing SaCYP76F39v1 (SaCYP76-G10) were assayed for their activity using the assay described in Section B. above.
# [4] = target: T2, SaCYP76F37v1 (SaCYP76-G11) (Santalum album, UniProt V5RGC8); assay: Substrate specificity, yeast microsomes containing SaCYP76F37v1 with various sesquiterpenes; format: biochemical; conditions: 40 μM of substrate, 30° C., 2 hours; for activity at 40 µM: rate of product formation relative to product formation by SaCYP76F39v1 with β-santalene
# Protocol: as §1
# (§2) To test the range of substrates used by the clade I and clade II SaCYP76F enzymes, yeast microsomes containing SaCYP76F37v1 (SaCYP76-G11) and SaCYP76F39v1 (SaCYP76-G10) were assayed for their ability to convert various sesquiterpenes, including the substrates α-santalene and β-santalene and 7 additional sesquiterpenes which resemble santalenes in the acyclic isoprenyl side chain, including α-curcumene, zingiberine, β-bisabolene, β-sesquiphellandrene, α-bisabolol, trans-β-farnesene and trans-nerolidol. Each substrate was tested using the in vitro assay described in Example 11.B.1.b above.
# (§3) The results are shown in Table 15 below, which sets forth the substrates, including their structures, and the relative activities which represent the rate of product formation relative to product formation by SaCYP76F39v1 (SaCYP76-G10) with β-santalene.
# [5] = target: T1, SaCYP76F39v1 (SaCYP76-G10); assay: Substrate specificity, yeast microsomes containing SaCYP76F39v1 with various sesquiterpenes; format: biochemical; conditions: 40 μM of substrate, 30° C., 2 hours; for activity at 40 µM: rate of product formation relative to product formation by SaCYP76F39v1 with β-santalene
# Protocol: as §1, §2, §3
# [6] = target: T2, SaCYP76F37v1 (SaCYP76-G11); assay: Oxidation of individual sesquiterpenes by microsomes containing SaCYP76F37v1; format: biochemical; conditions: partially purified substrate fraction, GC-MS
# Protocol: as §1
# (§4) Microsome preparations containing candidate P450 were assayed for their capacity to oxidize individual sesquiterpenes. The sesquiterpenes were isolated as described in Example 9 above. Three fractions containing mainly α-santalene, α-trans-bergamotene, or epi-β-santalene and β-santalene were used as individual substrates in assays containing clade I P450 SaCYP76F39v1 (SaCYP76-G10) or clade II P450 SaCYP76F37v1 (SaCYP76-G11). The assays were performed as described in Section B.1.b. above and products were identified by comparison to authentic standards (see Table 12 and FIG. 20G).
# [7] = target: T1, SaCYP76F39v1 (SaCYP76-G10); assay: Oxidation of individual sesquiterpenes by microsomes containing SaCYP76F39v1; format: biochemical; conditions: partially purified substrate fraction, GC-MS
# Protocol: as §1, §4
# [8] = tested on: SaCYP76F38v1 (SaCYP76-G5); assay: Coupled enzyme assay with SaSSy and FPP, microsomes containing SaCYP76F38v1; format: biochemical, Santalum album; conditions: in vitro reaction products of SaSSy and 70 μM FPP, 0.8 mM NADPH, 30° C., 1 hour
# Protocol: Coupled enzyme assays with S. album santalene synthase (SaSSy) expressed in bacteria (Jones et al. (2011) J Biol Chem 286:17445-17454) were initiated with 50 μg of His6-tag purified SaSSy and 70 μM farnesyl pyrophosphate (FPP) in TPS buffer (25 mM HEPES pH 7.5, 5 mM MgCl2, 1 mM DTT) in a volume of 450 μL. The assays were incubated for 30 min at 30° C. followed by the addition of 50 μL of the microsome preparation containing a S. album cytochrome P450 and a cytochrome P450 reductase and 0.8 mM NADPH. The reaction was incubated for an additional 1 hour at 30° C. and was stopped by extraction with 500 μL hexane/ethyl acetate (85:15).
# [9] = substrate: CC(C)=CCC[C@]1(C)C2C[C@@H]3[C@H](C2)C31C; assay: Kinetic assay with α-santalene or β-santalene as the substrate, SaCYP76F39v1; format: biochemical, Santalum album; conditions: other: apparent Km, 17 pmol P450, substrate 12 to 138 μM, 0.8 mM NADPH, pH 7.5, 30° C., 20 minutes
# Protocol: (§5) To test the kinetics of the clade I and clade II SaCYP76F enzymes, kinetic assays were performed with SaCYP76F37v1 (SaCYP76-G11) and SaCYP76F39v1 (SaCYP76-G10) with α-santalene or β-santalene as the substrate. Assays were performed in 400 μL reaction volumes containing 50 mM potassium phosphate pH 7.5, 0.8 mM NADPH and substrate concentrations of 12 to 138 μM of α-santalene or β-santalene. Enzyme reactions were initiated by adding either 17 pmol of SaCYP7639v1 or 35 pmol of SaCYP7637v1, incubated at 30° C. for 20 minutes with shaking and stopped by adding 500 μL hexane. […] Kinetic data were evaluated using tools described in Hernandez and Ruiz ((1998) Bioinformatics. 14:227-228).
# (§6) The apparent Km values, kcat values and kcat/Km values for SaCYP76F39v1 (SaCYP76-G10) and SaCYP76F37v1 (SaCYP76-G11) with α-santalene and β-santalene are set forth in Table 14 below.
# [10] = substrate: C=C1[C@@H]2CC[C@@H](C2)[C@@]1(C)CCC=C(C)C; assay: as above; format: biochemical, Santalum album; conditions: other: apparent Km, 17 pmol P450, substrate 12 to 138 μM, 0.8 mM NADPH, pH 7.5, 30° C., 20 minutes
# Protocol: as §5, §6
# [11] = substrate: CC(C)=CCC[C@]1(C)C2C[C@@H]3[C@H](C2)C31C; assay: Kinetic assay with α-santalene or β-santalene as the substrate, SaCYP76F37v1; format: biochemical, Santalum album; conditions: other: apparent Km, 35 pmol P450, substrate 12 to 138 μM, 0.8 mM NADPH, pH 7.5, 30° C., 20 minutes
# Protocol: as §5, §6
# [12] = substrate: C=C1[C@@H]2CC[C@@H](C2)[C@@]1(C)CCC=C(C)C; assay: as above; format: biochemical, Santalum album; conditions: other: apparent Km, 35 pmol P450, substrate 12 to 138 μM, 0.8 mM NADPH, pH 7.5, 30° C., 20 minutes
# Protocol: as §5, §6
molecule,measurement,setting,value
CC(C)=CCC[C@](C)(O)C1CC=C(C)CC1 (stereo partly shown) [bisabolol],Products of reaction with SaCYP76F38v1,[1],one product
same,Hydroxylation by CYP76-G10 in vitro,[2],catalyzed the hydroxylation
C=C1C2CCC(C2)[C@@]1(C)CCC=C(C)C (stereo partly drawn) [epi-β-santalene],Hydroxylation by SaCYP76F39v1,[3],catalyzed the hydroxylation
C=CC(C)(O)CCC=C(C)C (stereo not shown) [linalool],Products of reaction with SaCYP76F38v1,[1],two products
same,Hydroxylation by CYP76-G10 in vitro,[2],catalyzed the hydroxylation
C=CC(C)(O)CCC=C(C)CCC=C(C)C (stereo not shown) [nerolidol],Products of reaction with SaCYP76F38v1,[1],two products
C=CC(=C)CC/C=C(\C)CCC=C(C)C [trans-farnesene],activity at 40 µM,[4],0%
same,Use as a substrate by SaCYP76F39v1 (in words),[5],did not use
same,activity at 40 µM,[5],0%
C=CC(C)(O)CC/C=C(\C)CCC=C(C)C (stereo not drawn) [trans-nerolidol],Use as a substrate by SaCYP76F37v1 (in words),[4],selectively active
same,activity at 40 µM,[4],11.3%
same,Use as a substrate by SaCYP76F39v1 (in words),[5],did not use
same,activity at 40 µM,[5],0%
CC(C)=CCCC(C)C1C=CC(C)=CC1 (stereo not shown) [zingiberene],activity at 40 µM,[4],0%
same,Use as a substrate by SaCYP76F39v1 (in words),[5],did not use
same,activity at 40 µM,[5],0%
CC(C)=CCCC(C)(O)C1CC=C(C)CC1 (stereo not drawn) [α-bisabolol],activity at 40 µM,[4],0%
same,Use as a substrate by SaCYP76F39v1 (in words),[5],low activity
same,activity at 40 µM,[5],9.4%
CC(C)=CCCC(C)c1ccc(C)cc1 (stereo not drawn) [α-curcumene],activity at 40 µM,[4],0%
same,Use as a substrate by SaCYP76F39v1 (in words),[5],did not use
same,activity at 40 µM,[5],0%
CC(C)=CCC[C@]1(C)C2C[C@@H]3[C@H](C2)C31C [α-santalene],activity at 40 µM,[4],17.3%
same,Hydroxylation by SaCYP76F39v1,[3],catalyzed the hydroxylation
same,Products formed with SaCYP76F37v1,[6],only (E)-α-santalol
same,activity at 40 µM,[5],99.8%
same,Products formed with SaCYP76F39v1,[7],(Z)- and (E)-α-santalol
CC(C)=CCCC1(C)C2CC=C(C)C1C2 (stereo not drawn) [α-trans-bergamotene],Hydroxylation by SaCYP76F39v1,[3],catalyzed the hydroxylation
same,Products formed with SaCYP76F37v1,[6],only (E)-α-trans-bergamotol
same,Hydroxylation/oxidation by SaCYP76F38v1,[8],catalyzed the hydroxylation
same,Products formed with SaCYP76F39v1,[7],(Z)- and (E)-α-trans-bergamotol
C=C(CCC=C(C)C)C1CC=C(C)CC1 (stereo not drawn) [β-bisabolene],activity at 40 µM,[4],0%
same,Use as a substrate by SaCYP76F39v1 (in words),[5],did not use
same,activity at 40 µM,[5],0%
C=C1[C@@H]2CC[C@@H](C2)[C@@]1(C)CCC=C(C)C [β-santalene],activity at 40 µM,[4],17.7%
same,Hydroxylation by SaCYP76F39v1,[3],catalyzed the hydroxylation
same,activity at 40 µM,[5],100%
C=C1C=CC(C(C)CCC=C(C)C)CC1 (stereo not drawn) [β-sesquiphellandrene],activity at 40 µM,[4],0%
same,Use as a substrate by SaCYP76F39v1 (in words),[5],did not use
same,activity at 40 µM,[5],0%
B1,Km,[9],25.92 ± 0.11 µM
same,kcat,[9],1.12 s⁻¹
same,kcat/Km,[9],43000 M⁻¹ s⁻¹
same,Km,[10],34.82 ± 0.41 µM
same,kcat,[10],1.17 s⁻¹
same,kcat/Km,[10],33000 M⁻¹ s⁻¹
B2,Km,[11],133 ± 0.41 µM
same,kcat,[11],0.2 s⁻¹
same,kcat/Km,[11],1500 M⁻¹ s⁻¹
same,Km,[12],157 ± 0.17 µM
same,kcat,[12],0.13 s⁻¹
same,kcat/Km,[12],810 M⁻¹ s⁻¹
